{"source": "paper PMC8752738", "about": "“A propolis-derived small molecule ameliorates metabolic syndrome in obese mice by targeting the CREB/CRTC2 transcriptional complex” (Nature Communications, 2022)", "key": {"[1]": {"assay": "Fasting blood glucose", "assay_type": "in vivo, mouse", "design": "Blood glucose of CRTC2KO / blood glucose in CRTC2KO, mean: unit not given here", "details": "for blood glucose in CRTC2KO, mean / Blood glucose of CRTC2KO: Figure 9e, 20mg/kg; for blood glucose in CRTC2KO, mean: N 6"}, "[2]": {"molecular_target": "T1, HIS-CREB protein (Homo sapiens, UniProt P16220)", "T1 construct": "made in house", "assay": "Surface plasmon resonance, immobilized HIS-CREB", "assay_type": "binding", "details": "dose-dependent", "procedure": "BIACORE 100 (GE Healthcare) was employed to perform surface plasmon resonance. Briefly, purified HIS-CREB proteins were captured in the test channel of an NTA-chip (GE, Healthcare) in HEPES buffer (10 mM HEPES, 150 mM NaCl, 3 mM EDTA, pH 7.5). APC solutions with different concentrations were flowed through immobilized HIS-CREB proteins for indicated times, which caused equilibrium response values (RU) to change appropriately. The detected RU values were plotted by time using GraphPad Prism software."}, "[3]": {"molecular_target": "CBP (Homo sapiens, UniProt Q92793)", "sequence (Q92793 whole entry)": "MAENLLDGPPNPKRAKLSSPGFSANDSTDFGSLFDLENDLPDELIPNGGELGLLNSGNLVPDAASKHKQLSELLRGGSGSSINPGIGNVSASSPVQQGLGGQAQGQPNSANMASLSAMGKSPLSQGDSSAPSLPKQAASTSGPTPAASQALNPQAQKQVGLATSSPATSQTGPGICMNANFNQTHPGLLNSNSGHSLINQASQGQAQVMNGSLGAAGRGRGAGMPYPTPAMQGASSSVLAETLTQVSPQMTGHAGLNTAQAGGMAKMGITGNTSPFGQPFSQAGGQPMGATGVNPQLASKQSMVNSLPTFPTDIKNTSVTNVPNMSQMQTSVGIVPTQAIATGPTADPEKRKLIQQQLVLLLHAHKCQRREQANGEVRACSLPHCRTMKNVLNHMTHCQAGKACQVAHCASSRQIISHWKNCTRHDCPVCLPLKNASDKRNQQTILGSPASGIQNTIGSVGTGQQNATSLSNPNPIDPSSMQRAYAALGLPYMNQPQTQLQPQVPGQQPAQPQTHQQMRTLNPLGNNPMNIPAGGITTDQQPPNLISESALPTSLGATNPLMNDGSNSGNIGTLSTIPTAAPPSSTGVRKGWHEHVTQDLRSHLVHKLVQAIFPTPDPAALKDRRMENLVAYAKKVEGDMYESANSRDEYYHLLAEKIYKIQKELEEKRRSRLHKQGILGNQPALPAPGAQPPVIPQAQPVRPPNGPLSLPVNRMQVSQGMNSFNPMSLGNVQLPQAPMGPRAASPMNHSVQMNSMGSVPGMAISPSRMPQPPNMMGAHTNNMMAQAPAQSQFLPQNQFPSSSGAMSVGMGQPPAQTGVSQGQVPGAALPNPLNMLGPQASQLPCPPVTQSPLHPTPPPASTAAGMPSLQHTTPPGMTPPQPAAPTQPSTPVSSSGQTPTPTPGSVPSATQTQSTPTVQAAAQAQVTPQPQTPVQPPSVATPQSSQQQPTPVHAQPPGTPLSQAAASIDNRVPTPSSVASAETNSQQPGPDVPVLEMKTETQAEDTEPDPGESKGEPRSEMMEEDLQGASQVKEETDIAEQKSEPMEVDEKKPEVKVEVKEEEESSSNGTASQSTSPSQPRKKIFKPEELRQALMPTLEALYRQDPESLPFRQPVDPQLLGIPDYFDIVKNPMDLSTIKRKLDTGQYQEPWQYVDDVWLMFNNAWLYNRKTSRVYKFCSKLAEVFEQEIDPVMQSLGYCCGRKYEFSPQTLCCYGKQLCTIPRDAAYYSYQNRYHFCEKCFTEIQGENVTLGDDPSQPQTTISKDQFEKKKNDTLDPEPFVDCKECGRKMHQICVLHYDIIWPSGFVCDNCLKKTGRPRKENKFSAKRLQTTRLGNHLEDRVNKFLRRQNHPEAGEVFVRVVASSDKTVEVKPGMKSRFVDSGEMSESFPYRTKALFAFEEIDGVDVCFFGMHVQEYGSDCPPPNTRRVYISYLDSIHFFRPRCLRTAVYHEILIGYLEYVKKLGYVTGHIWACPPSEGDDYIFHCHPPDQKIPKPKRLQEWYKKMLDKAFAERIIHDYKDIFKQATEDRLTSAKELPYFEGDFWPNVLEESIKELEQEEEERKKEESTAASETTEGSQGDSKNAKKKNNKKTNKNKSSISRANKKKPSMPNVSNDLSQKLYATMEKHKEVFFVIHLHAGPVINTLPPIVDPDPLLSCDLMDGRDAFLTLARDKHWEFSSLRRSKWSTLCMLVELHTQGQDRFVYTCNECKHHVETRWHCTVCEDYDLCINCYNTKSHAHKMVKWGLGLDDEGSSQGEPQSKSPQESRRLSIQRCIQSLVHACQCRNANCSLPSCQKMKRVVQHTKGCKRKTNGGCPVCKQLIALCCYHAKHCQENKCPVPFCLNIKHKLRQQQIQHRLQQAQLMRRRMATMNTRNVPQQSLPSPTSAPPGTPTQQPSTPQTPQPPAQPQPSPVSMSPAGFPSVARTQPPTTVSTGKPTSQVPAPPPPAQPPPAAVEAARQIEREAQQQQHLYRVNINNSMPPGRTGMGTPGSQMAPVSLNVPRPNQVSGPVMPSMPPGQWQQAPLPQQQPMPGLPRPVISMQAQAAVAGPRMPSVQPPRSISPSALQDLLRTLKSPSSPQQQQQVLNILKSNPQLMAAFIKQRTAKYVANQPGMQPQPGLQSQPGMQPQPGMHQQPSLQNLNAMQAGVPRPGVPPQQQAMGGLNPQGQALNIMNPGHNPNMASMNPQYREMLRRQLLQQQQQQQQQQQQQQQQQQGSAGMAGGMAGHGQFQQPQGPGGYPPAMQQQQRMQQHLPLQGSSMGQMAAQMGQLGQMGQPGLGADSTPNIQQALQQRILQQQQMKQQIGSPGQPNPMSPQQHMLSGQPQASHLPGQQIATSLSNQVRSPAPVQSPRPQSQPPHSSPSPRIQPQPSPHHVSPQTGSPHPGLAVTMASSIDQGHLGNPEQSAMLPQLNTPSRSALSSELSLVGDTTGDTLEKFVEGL", "assay": "Acetyltransferase activity of CBP (H3K27ac immunoblot, HEK293 cells)", "assay_type": "cell-based", "details": "for relative H3K27ac level: Fig 3d replicates, HA-CBP +, TSA-0.5uM +", "text": "Fig. 3 APC inhibits CRTC2 interacting with CREB-ZIP and reduces acetyltransferase activity of CBP by binding with CREB protein directly. a Isothermal titration calorimetry (ITC) of HIS-CREB protein solution titrated into APC solution. The bottom solid line represents a nonlinear least-squares fitted by a single-site binding model. One of two independent experiments is shown here. b IC50 of APC inhibitory activity detected by CREB–CRTC2 two-hybrid assay in HEK293T cells (n = 3 per treatment, data are represented as mean ± SEM). One of three independent experiments is shown here. c Immunoprecipitation analysis of FLAG-CRTC2-WT recovered by anti-MYC antibody from HEK293 cells co-transfected with plasmids for a Myc-Creb-Zip fragment and the FLAG-Crtc2-Wt, stimulated by FSK (10 nM) for 2-h before harvest. APC (1–10 μM) was included in immunoprecipitation mixtures as indicated. Top represents one of three independent experiments, and the relative gray density of FLAG normalized to MYC in MYC-IP- factions is shown as a bar graph (bottom, n = 3). Data are represented as mean ± SEM; P values were determined by one-way ANOVA followed Dunnett’s multiple comparisons test. d Immunoblotting analysis of the acetyltransferase activity of CBP. The protein levels of H3K27ac and total Histone H3 were determined using specific antibodies from HEK293 cell lysate overexpressing HA-Cbp plasmid. […] The top represents one of three independent experiments, and the relative gray density of H3K27ac normalized to total Histone H3 in cell lysate is shown as a bar graph (bottom, n = 3). Data are represented as mean ± SEM; P values were determined by one-way ANOVA followed Dunnett’s multiple comparisons test. ns, P > 0.05; *P < 0.05; **P < 0.01. Sources data for this figure are provided as source data file."}, "[4]": {"molecular_target": "T2, CREB-KID / CBP-KIX interaction (Homo sapiens, UniProt P16220)", "T2 construct": "CBP-KIX and CREB-KID domains as determined by two-hybrid assay; expressed in transfected cells; host or cells: HEK293T", "T2 sequence (P16220 87-146 limits assumed)": "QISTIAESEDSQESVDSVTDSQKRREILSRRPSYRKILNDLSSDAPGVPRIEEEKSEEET", "assay": "Two-hybrid assay BD-CREB-KID / AD-CBP-KIX", "assay_type": "cell-based", "details": "HEK293T, 10 μM, 8-h"}, "[5]": {"molecular_target": "T3, CREB / CRTC3 interaction (Homo sapiens, UniProt P16220)", "T3 construct": "expressed in transfected cells; host or cells: HEK293T", "assay": "Co-immunoprecipitation of GFP-CRTC3 by MYC-CREB, HEK293T", "assay_type": "cell-based", "details": "overexpression HEK293T cells, APC 10 μM", "procedure": "1 Supplementary Figure 2.\n2 a) Immunoblot of HA-P300 recovered from HEK293T cell lysate using GST-CREB beads. APC\n3 (10 μM) was incubated with cells for 1-h before FKS (10 nM) stimulation and was included in the\n4 following pull-down mixtures (n=3). One of two independent experiments presented here.\n5 b) Immunoblot for recovered GFP-CRTC1 or (c) GFP-CRTC3 immunoprecipitated by MYC-CREB\n6 from overexpression HEK293T cell line. APC (10 μM) was incubated with cells for 1-h before FKS\n7 (10 nM) stimulation and was included in the following pull-down mixtures. One of two independent\n8 experiments presented here.\n9 d) SPR sonogram traces of APC binding with HIS-CREB proteins immobilized to NTA-chip. The\n10 concentration series of APC was as indicated.\n11 e) SPR sonogram traces of APC flowing through HIS-CRTC2-S171A proteins immobilized on\n12 NTA-chip. The concentration of APC was as indicated.\n13 f) The luciferase enzymatic activity of HEK293T incubated with APC. Cells over-expressed\n14 luciferase CRE-Luc reporter and were stimulated by FSK (10 nM) for 5-h before lysis, which was\n15 then incubated with APC (concentration indicated) for 30 min before luciferase activity determination\n16 (n=3 per treatment). Data are represented as mean ± SEM. *, p < 0.05; **, p < 0.01; p values were\n17 determined by one-way ANOVA followed Dunnett’s multiple comparisons test. […]"}, "[6]": {"molecular_target": "T4, CRTC2 / SEC31A interaction (Mus musculus, UniProt Q3U182+Q3UPL0)", "T4 construct": "expressed in transfected cells; host or cells: HEK293", "T4 sequence (Q3U182 whole entry)": "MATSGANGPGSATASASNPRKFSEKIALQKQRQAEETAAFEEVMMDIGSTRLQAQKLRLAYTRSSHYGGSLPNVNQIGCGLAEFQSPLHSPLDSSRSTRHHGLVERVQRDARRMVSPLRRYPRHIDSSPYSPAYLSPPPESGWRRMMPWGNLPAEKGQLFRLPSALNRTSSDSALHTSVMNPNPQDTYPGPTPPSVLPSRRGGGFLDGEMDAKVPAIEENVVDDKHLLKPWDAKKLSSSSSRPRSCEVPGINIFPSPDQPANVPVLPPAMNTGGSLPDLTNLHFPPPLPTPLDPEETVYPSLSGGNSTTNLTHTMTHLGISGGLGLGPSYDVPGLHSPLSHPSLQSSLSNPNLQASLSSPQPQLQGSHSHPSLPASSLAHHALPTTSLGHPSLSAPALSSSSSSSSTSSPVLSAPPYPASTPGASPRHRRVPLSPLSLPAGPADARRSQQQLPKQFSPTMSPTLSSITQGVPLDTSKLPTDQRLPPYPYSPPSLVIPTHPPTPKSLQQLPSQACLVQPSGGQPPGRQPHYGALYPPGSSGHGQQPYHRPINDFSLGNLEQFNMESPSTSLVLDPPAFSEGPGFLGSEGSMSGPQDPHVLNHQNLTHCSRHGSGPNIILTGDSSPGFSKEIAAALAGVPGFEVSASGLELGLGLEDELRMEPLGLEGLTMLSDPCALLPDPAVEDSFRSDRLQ", "T4 sequence (Q3UPL0 whole entry)": "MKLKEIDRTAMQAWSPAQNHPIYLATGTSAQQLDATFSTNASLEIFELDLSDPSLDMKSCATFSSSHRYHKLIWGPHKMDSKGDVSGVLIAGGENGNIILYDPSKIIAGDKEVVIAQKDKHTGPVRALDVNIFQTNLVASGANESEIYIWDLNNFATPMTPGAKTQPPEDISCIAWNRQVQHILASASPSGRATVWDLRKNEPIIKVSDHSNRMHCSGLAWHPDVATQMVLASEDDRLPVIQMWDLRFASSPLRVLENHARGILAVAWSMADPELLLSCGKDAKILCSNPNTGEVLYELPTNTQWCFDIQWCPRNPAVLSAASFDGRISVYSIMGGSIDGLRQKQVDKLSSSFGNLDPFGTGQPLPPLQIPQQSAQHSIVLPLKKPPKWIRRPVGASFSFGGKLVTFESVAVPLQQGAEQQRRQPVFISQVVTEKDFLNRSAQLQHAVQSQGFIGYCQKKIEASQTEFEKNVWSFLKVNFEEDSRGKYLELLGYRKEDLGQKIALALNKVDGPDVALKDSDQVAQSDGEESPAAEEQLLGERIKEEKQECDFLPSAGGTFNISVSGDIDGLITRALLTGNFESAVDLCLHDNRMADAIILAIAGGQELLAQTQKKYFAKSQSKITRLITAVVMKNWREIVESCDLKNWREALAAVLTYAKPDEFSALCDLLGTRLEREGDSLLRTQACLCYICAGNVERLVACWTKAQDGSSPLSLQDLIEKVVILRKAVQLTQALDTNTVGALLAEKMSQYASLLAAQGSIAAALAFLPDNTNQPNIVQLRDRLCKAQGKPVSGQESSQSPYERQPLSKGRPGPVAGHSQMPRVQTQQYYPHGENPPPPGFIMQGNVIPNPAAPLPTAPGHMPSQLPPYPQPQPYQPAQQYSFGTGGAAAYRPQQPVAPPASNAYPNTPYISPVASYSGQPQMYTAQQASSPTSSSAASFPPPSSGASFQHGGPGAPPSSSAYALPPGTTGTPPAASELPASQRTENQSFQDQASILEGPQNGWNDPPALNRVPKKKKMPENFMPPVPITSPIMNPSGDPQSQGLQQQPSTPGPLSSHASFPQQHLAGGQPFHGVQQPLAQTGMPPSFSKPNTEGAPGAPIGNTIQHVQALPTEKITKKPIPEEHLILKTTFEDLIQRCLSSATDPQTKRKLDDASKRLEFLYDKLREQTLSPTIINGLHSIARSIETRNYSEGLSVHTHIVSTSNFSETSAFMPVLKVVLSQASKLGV", "assay": "Co-immunoprecipitation CRTC2 / SEC31A", "assay_type": "biochemical", "details": "APC 10 μM in IP mixture", "procedure": "1 b) Immunoprecipitation of SEC31A from HEK293 cell lysates with overexpressed […] or\n2 FLAG-Crtc2-WT. APC (10 μM) was added to the IP mixture overnight. One of two independent\n3 experiments is shown here. […]\n5 administered MET and APC as in (a). Data are represented as mean ± SEM (n=6 per group). *,\n6 p < 0.05; **, p < 0.01; p values were determined by two-way ANOVA followed Bonferroni’s multiple\n7 comparisons test. Source data for this figure are provided as a Source data file."}}, "note": "Where “and” joins values, the source holds several entries; their conditions need not be identical. Equal values may be shown once. Entries after “also recorded” stand apart in the source; their conditions may differ."}
{"smiles": "CC(C)=CCc1cc(C=CC(=O)O)cc(CC=C(C)C)c1O", "note": "[APC, 3,5-diprenyl-4-hydroxycinnamic acid]", "values": [{"measurement": "fasting blood glucose levels", "setting": "[1]; DIO and db/db mice, i.p. 20 mg/kg", "value": "remarkably decreased"}, {"measurement": "blood glucose in CRTC2KO, mean", "setting": "[1]; CRTC2KO mice, group mean", "value": 3.317}, {"measurement": "Blood glucose of CRTC2KO", "setting": "[1]; CRTC2KO mice, single animals", "value": "3.3 (2×) and 3.8 and 2.6 and 3.1"}, {"measurement": "blood glucose in CRTC2KO, mean", "setting": "[1]; WT mice, group mean", "value": 3.65}, {"measurement": "Blood glucose of CRTC2KO", "setting": "[1]; WT mice, single animals", "value": "2.1 and 3.3 and 3.2 (3×) and 4"}, {"measurement": "FBG in db/db, mean", "setting": "[1]; Figure 9f, db/db, group mean, n 5", "value": 19.96, "unit": "mM"}, {"measurement": "Fasting blood glucose", "setting": "[1]; Figure 9f, db/db, single animals", "value": "13 mM and 22 mM and 26.3 mM and 18.9 mM and 19.6 mM"}, {"measurement": "Fasting blood glucose, mean of column B", "setting": "[1]; Figure 8d, group mean, n=6, VEH mean 137.4", "value": 91.6, "unit": "mg/dL"}, {"measurement": "Fasting blood glucose", "setting": "[1]; Figure 8d, individual mice", "value": "79.2 mg/dL and 84.6 mg/dL and 110.4 mg/dL and 95.4 mg/dL and 102.6 mg/dL and 77.4 mg/dL"}, {"measurement": "fasting blood glucose levels", "setting": "[1]; db/db mice, one oral delivery 5 mg/kg", "value": "little effect"}, {"measurement": "fasting blood glucose in db/db mice, mean", "setting": "[1]; group mean, n=6", "value": 109.4, "unit": "mg/dL"}, {"measurement": "effect on fasting blood glucose in Crtc2KO mice", "setting": "[1]; high-fat diet, oral 20 mg/kg daily, 3 days", "value": "abolished"}, {"measurement": "fasting blood glucose in db/db mice", "setting": "[1]; individual mouse", "value": "141.4 mg/dL and 95.6 mg/dL and 108 mg/dL and 121.6 mg/dL and 83.4 mg/dL and 106.2 mg/dL"}, {"measurement": "binding to immobilized HIS-CREB (SPR)", "setting": "[2]", "value": "directly bound"}, {"measurement": "relative H3K27ac level", "setting": "[3]; APC 2 uM", "value": "1.193 and 1.187 and 1.293"}, {"measurement": "relative H3K27ac level", "setting": "[3]; APC 5 uM", "value": "0.5384 and 0.3648 and 0.6529"}, {"measurement": "acetylation level of H3K27ac induced by CBP", "setting": "[3]; HEK293 cells overexpressing HA-Cbp", "value": "dose-dependently reduced"}, {"measurement": "interaction of CBP-KIX and CREB-KID domains (two-hybrid)", "setting": "[4]", "value": "little effect; also recorded: neither APC nor A57 reduced"}, {"measurement": "interaction of CREB and CRTC3", "setting": "[5]", "value": "attenuated"}, {"measurement": "protein interaction between CRTC2 and SEC31A", "setting": "[6]", "value": "no impact"}]}
